Assay results from patent publication US20120083473A1, “TREATMENT OF CONDITIONS BY TOLL-LIKE RECEPTOR MODULATORS” (priority 2010, published 2012).
Entries after “also recorded” stand apart in the source; their conditions may differ.

System: rat collagen-induced arthritis (CIA) model
Test: Rat collagen-induced arthritis (CIA) model
Format: in vivo
Conditions: for day of definite disease onset / bone erosion score / cumulative arthritis score / cartilage erosion score / joint inflammation score / proteoglycan loss score: mean±SD; for cartilage erosion score / joint inflammation score / proteoglycan loss score: scale 0-3
Description: Collagen-induced arthritis was induced in 9 weeks old female Lewis rats using a two-steps immunization protocol. On day 0, rats were immunized by intradermal injection of approximately 1 ml of 1 mg/ml bovine type II collagen (Chondrex) emulsified in Incomplete Freund's adjuvant (Difco Laboratories) at several sites at the back. Arthritis development was accelerated by an intradermal booster immunization in the back and tail-base with 100 µg bovine type II collagen (Chondrex) in IFA (Difco Laboratories) at day 7. For immunization, rats were anesthetized by inhalation of 3-4% isoflurane in a mixture of oxygen and nitrous oxide.
Rats were evaluated 6 times per week (once during weekends) for arthritis severity using a macroscopic scoring system of 0-4 for each paw as detailed below:
0=no signs of arthritis 0.5=unloading of the paw and/or light redness of ankle joint 1=redness and mild swelling of the ankle joint 2=redness and swelling of paw 3=severe redness and swelling of entire paw including digits 4=maximally swollen paw, often involvement of multiple joints and extending toward knee joint.
The total clinical score of an individual rat is defined as the sum of the clinical scores of all four paws for each day. At the end of the study, the cumulative arthritis score was calculated for each rat. This cumulative arthritis score is defined as the sum of the total clinical scores obtained from day 0 till day 24.
The day of disease is defined as the first day of three consecutive days on which a total clinical arthritis score of more than 0 was observed.
The swelling of the hind paws was measured during weekdays with a laser scan micrometer (Mitutoyo, LSM-503S/6200). At the end of the study, the cumulative paw swelling was calculated for each rat as follows: a baseline value was determined by averaging the paw thickness values of day 0-9 when no signs of arthritis were visible in the vehicle-treated group. Next, increase in paw thickness was calculated by subtracting the baseline value from the paw thickness values obtained on day 10-24 (delta value). Cumulative paw swelling is defined as the sum of the delta paw thickness values from day 10 till 24.
Left ankle joints were decalcified in a solution of 10% EDTA in distilled water, pH 7.4 for at least two months. After a wash in running tap water for 24 hours, the joints were embedded in paraffin and cut into 5 μm sections.
Joint inflammation was scored on Haematoxylin Phloxine Saffron (HPS) stained sections. The inflammation score is based on the amount of inflammatory cells infiltrated into the joint on a scale of 0-3:
0=no inflammation 1=inflammatory cells in muscle layer (surrounding tissue) 2=infiltration of inflammatory cells in the joint 3=severe infiltration of inflammatory cells in the joint
Cartilage erosion was also scored on HPS stained sections. Erosion was scored in three compartments between tarsal bones and the tibia bone as the disappearance of cartilage or chondrocyte death on a scale of 0-3:
0=no erosion 1=erosion in 1 joint compartment 2=erosion in 2 joint compartments 3=erosion in 3 joint compartments
Proteoglycan (PG) loss was scored on Saffranin 0/Fast green-stained sections on a scale of 0-3, indicating increasing loss of staining from the cartilage tissue:
0=no PG loss 1=1-33% loss of PG staining 2=34-66% loss of PG staining 3=67%-complete loss of PG staining
Bone erosion was scored on HPS stained sections. Erosion was scored at four different locations in two compartments as the number of osteoclasts per field (average value is given in Appendix 8): […]

With `COCCOc1nc(N)c2nc(O)n(Cc3ccc(C(=O)NCCOCCOCCOCCOCCOCCOCCn4cc(CCC(=O)O)nn4)cc3)c2n1` [Compound 2] the “day on which disease incidence of 100% was reached” value (from here on “day … of 100% was reached”) (1.6 mg/kg) was 11 days, the “day of definite disease onset” value (1.6 mg/kg i.p. once daily from day 10) was 10.3 ± 0.5 days and the bone erosion score (1.6 mg/kg) was 0.63±0.17. The cumulative arthritis score (1.6 mg/kg) was 77.3±11.9 a.u, the cartilage erosion score (1.6 mg/kg) was 2.09±0.65 and the joint inflammation score (1.6 mg/kg) was 2.69±0.37. The proteoglycan loss score (1.6 mg/kg) was 2.41±0.40, the “day … of 100% was reached” value (3.2 mg/kg) was 13 days and the “day of definite disease onset” value (3.2 mg/kg i.p. once daily from day 10) was 10.4 ± 1.1 days. For the same compound, the bone erosion score (3.2 mg/kg) was 0.62±0.09, the cumulative arthritis score (3.2 mg/kg) was 83.3±12.2 a.u and the cartilage erosion score (3.2 mg/kg) was 2.34±0.68. The joint inflammation score (3.2 mg/kg) was 2.66±0.33, the proteoglycan loss score (3.2 mg/kg) was 2.53±0.21 and the “day … of 100% was reached” value (6.3 mg/kg) was 11 days. For the same compound, the “day of definite disease onset” value (6.3 mg/kg i.p. once daily from day 10) was 10.4 ± 0.5 days, the bone erosion score (6.3 mg/kg) was 0.69±0.13 and the cumulative arthritis score (6.3 mg/kg) was 81.1±14.6 a.u. It also gave a cartilage erosion score (6.3 mg/kg) of 2.06±0.65, a joint inflammation score (6.3 mg/kg) of 2.69±0.32 and a proteoglycan loss score (6.3 mg/kg) of 2.47±0.34. The “day … of 100% was reached” value (12.6 mg/kg) was 15 days, the “day of definite disease onset” value (12.6 mg/kg i.p. once daily from day 10) was 11.5 ± 2.0 days and the “total clinical arthritis score versus vehicle, end of the study” value (12.6 mg/kg, day 22, 23 and 24 (p=0.036, p=0.017, p=0.044)) was “statistically exceeded that of the vehicle group”. For the same compound, the joint inflammation score (12.6 mg/kg, left ankle histology) was 2.41±0.42, the cumulative arthritis score (12.6 mg/kg, day 0 till day 24) was 77.6±19.9 a.u and the bone erosion score (12.6 mg/kg, osteoclast score 0-3) was 0.56±0.14. The “cumulative hind paw swelling versus vehicle” value (12.6 mg/kg, p=0.003 left, p=0.004 right hind paw) was “significantly reduced; also recorded: reduction”, the “proteoglycan loss versus vehicle” value (12.6 mg/kg, p=0.026) was “significantly diminished; also recorded: significant suppression” and the cartilage erosion score (12.6 mg/kg) was 1.81±0.91. For the same compound, the proteoglycan loss score (12.6 mg/kg) was 1.97±0.59, the “clinical signs of arthritis / total clinical arthritis score versus vehicle, initial phase” value (12.6 mg/kg, significant on day 13 and 16 (p=0.018, p=0.011)) was “initially suppressed” and the “development of clinical signs of arthritis over time” value (6.3, 3.2 and 1.6 mg/kg groups) was “comparable to the vehicle group”. For the same compound, the “arthritis development compared to the vehicle group” value (6.3, 3.2 or 1.6 mg/kg) was “did not significantly reduce”, the paw thickness (Compound 2 12.6, 6.3, 3.2, 1.6 mg/kg) was “dose-dependent reduction” and the disease incidence (all Compound 2 groups (12.6, 6.3, 3.2, 1.6 mg/kg), till the end of the study) was 100%. For the same compound, the body weight (different concentrations Compound 2) was “decreased gradually after disease onset, which was similar to the vehicle group”, the arthritis development (highest dose level (12.6 mg/kg), therapeutic i.p. from day 10) was “limited suppression” and the “hind paw swelling versus vehicle” value (other Compound 2 dose groups (6.3, 3.2, 1.6 mg/kg)) was “no significant differences”.
